Reference: the supplement of paper PMC10011410
± gives the standard deviation of the averaged measurements.

Legend:
Conditions in all cases: 24 h
U-2 OS [1] = test: intracellular GSH:GSSG ratio (calculated); higher = more reduced glutathione pool
Protocol: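 Intracellular glutathione in U-2 OS cells after 24 h compound treatment at 5, 10 and 20 uM (some at 40 and 80 uM). Total glutathione and GSSG were measured with the GSH/GSSG-Glo kit, and the GSH:GSSG ratio was calculated. Mean of five technical replicate plates.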

U-2 OS [2] = test: cell viability (CellTiter-Glo) relative to DMSO (% of control); higher = more viable
Protocol: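 Cell viability of U-2 OS cells by CellTiter-Glo after 24 h compound treatment at 5, 10 and 20 uM (some at 40 and 80 uM), measured in parallel with the glutathione assay, as percent of DMSO control. Five technical replicate plates, averaged.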

U-2 OS [3] = test: total intracellular glutathione (GSH + GSSG) relative to DMSO (% of control); higher = more glutathione
Protocol: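 Total intracellular glutathione (GSH + GSSG) in U-2 OS cells by GSH/GSSG-Glo after 24 h compound treatment at 5, 10 and 20 uM (some at 40 and 80 uM), as percent of DMSO control. Five technical replicate plates, averaged.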

U-2 OS [4] = test: cell painting activity score (Mahalanobis distance from DMSO wells); higher = stronger morphological phenotype
In short: (§1)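 Images taken on an Opera Phenix of U-2 OS cells stained with MitoTracker, concanavalin A, phalloidin, wheat germ agglutinin, Hoechst and SYTO 14 were processed in CellProfiler, with features normalized to DMSO cells on the same plate. The cells, about 1,500 per well in 384-well plates, had been treated by pin tool for 24 h at 37 °C, usually at six 2-fold concentrations from 20 μM to 625 nM. The activity score measures Mahalanobis distance from DMSO wells, and cell count is expressed relative to DMSO wells. Each value averages four replicate plates.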

U-2 OS [5] = test: relative cell count vs DMSO (cell painting) (fraction of DMSO control); higher = more cells remaining (less cytotoxic)
In short: as §1

Compound	intracellular GSH:GSSG ratio (U-2 OS [1]; 5 µM)	intracellular GSH:GSSG ratio (U-2 OS [1]; 10 µM)	intracellular GSH:GSSG ratio (U-2 OS [1]; 20 µM)	cell viability (U-2 OS [2]; 5 µM)	cell viability (U-2 OS [2]; 10 µM)	cell viability (U-2 OS [2]; 20 µM)	total intracellular glutathione (U-2 OS [3]; 5 µM)	total intracellular glutathione (U-2 OS [3]; 10 µM)	total intracellular glutathione (U-2 OS [3]; 20 µM)	cell painting activity score (U-2 OS [4]; 0.625 µM)	cell painting activity score (U-2 OS [4]; 1.25 µM)	cell painting activity score (U-2 OS [4]; 2.5 µM)	cell painting activity score (U-2 OS [4]; 5 µM)	cell painting activity score (U-2 OS [4]; 10 µM)	cell painting activity score (U-2 OS [4]; 20 µM)	relative cell count (U-2 OS [5]; 0.625 µM)	relative cell count (U-2 OS [5]; 1.25 µM)	relative cell count (U-2 OS [5]; 2.5 µM)	relative cell count (U-2 OS [5]; 5 µM)	relative cell count (U-2 OS [5]; 10 µM)	relative cell count (U-2 OS [5]; 20 µM)	cell viability (U-2 OS [2]; 40 µM)	cell viability (U-2 OS [2]; 80 µM)	total intracellular glutathione (U-2 OS [3]; 40 µM)	total intracellular glutathione (U-2 OS [3]; 80 µM)	cell painting activity score (U-2 OS [4]; 40 µM)	cell painting activity score (U-2 OS [4]; 80 µM)	relative cell count (U-2 OS [5]; 40 µM)	relative cell count (U-2 OS [5]; 80 µM)	intracellular GSH:GSSG ratio (U-2 OS [1]; 40 µM)	intracellular GSH:GSSG ratio (U-2 OS [1]; 80 µM)
O=[N+]([O-])c1ccc(-c2nnc(SC3=CS(=O)(=O)c4ccccc43)o2)cc1	10.4	3.4	3.08	84.5 ± 5.8	33.5 ± 5.2	49.4 ± 2.6	119 ± 3.7	38.4 ± 3.2	46.6 ± 3.2	6.12	8.55	13.1	17.1	14.6	17.5	0.934	0.893	0.773	0.394	0.225	0.29										
NC1CS(=O)(=O)c2ccccc21 (centres undefined)	3.24			56.6 ± 6.3	58 ± 7.3	56.7 ± 7.8	51.9 ± 5.3	51.6 ± 4.8	45.5 ± 3.2	4.42	4.19	4.72	3.88	3.43	4.56	0.986	1.06	1.06	1.07	1.06	1.04										
O=[N+]([O-])c1c(Sc2ncnc3nc[nH]c23)cc(Cl)c2nsnc12	9.07	1.18	2.18	41.6 ± 9.6	5.86 ± 1.9	12 ± 2.9	74 ± 19	32.4 ± 4.7	43.3 ± 3.9	3.42	4.43	4.96	4.68	3.76	3.8	0.924	0.936	0.903	0.912	0.96	0.913										
O=S1(=O)CC(SCc2ccccc2)c2ccccc21 (centres undefined)	30.3	20.1	26.3	107 ± 2.6	104 ± 5.2	97.8 ± 5.9	105 ± 2.7	98.7 ± 6.5	106 ± 6.4	4.11	4.32	4.24	4.29	3.77	3.73	1.13	1.12	1.06	1.07	1.14	1.12										
C=CC(=O)Nc1cccc(Nc2nc(Nc3ccc(Oc4ccnc(C(=O)NC)c4)cc3)ncc2F)c1	17.7	5.85	2.15	75.8 ± 3.4	59.5 ± 6.1	1.84 ± 1.1	64.2 ± 2	55.9 ± 4.7	5.78 ± 1.6	4.92	4.2	6.51	4.99	8.06	9.39	1	0.96	0.987	0.953	0.961	0.93										
COC1=CC=C(S(=O)(O/N=C2C=C(C(C(C)=C\2)=O)C)=O)C=C1	4.85	2.61		31.2 ± 1.5	15.9 ± 2	9.58 ± 10	59.9 ± 4	41.1 ± 5.9	6.59 ± 2.2	4.25	8.9	10.5	12	16.6	24.6	1.01	0.93	0.9	0.718	0.17	0.237	0.28 ± 0.061	0.124 ± 0.018	0.79 ± 0.15	0.604 ± 0.13	22.8	20.4	0.146	0.0922		
C=CC(=O)Nc1cc2c(Nc3ccc(F)c(Cl)c3)ncnc2cc1OC	19.9	24.8	20.5	93.5 ± 3.4	91.9 ± 1.7	86.5 ± 2.2	99.7 ± 5.3	96.6 ± 3.8	94.5 ± 4.3	5.64	6.77	6.2	7.6	7.34	7.33	1.02	1.06	1.05	0.989	1	0.992										
C=CC(=O)N1CCN(c2ncnc3c(F)c(-c4c(O)cccc4F)c(Cl)cc23)CC1	18.9	16.4	11.6	91.3 ± 4.4	89.2 ± 6.2	100 ± 6.9	105 ± 3.9	104 ± 3.3	102 ± 3.2	10.3	8.82	11.4	11	11.8	16	0.691	0.719	0.571	0.555	0.531	0.516										
c1cc(SSc2ccns2)sn1	24.1	6.28	4.87	94.5 ± 3.6	62.9 ± 10	29 ± 8.2	93.2 ± 6.5	67.1 ± 14	31.5 ± 34	5.35	4.46	6.31	8.63	14.8	17.2	0.85	0.816	0.752	0.635	0.137	0.116	2.06 ± 0.76	0.459 ± 0.058	25.6 ± 43	22.5 ± 43					0.0649	
C=C1C(=O)O[C@H](CCC)[C@H]1C(=O)O	21.5	22.5	22.9	91.7 ± 2.8	98.6 ± 6	95.5 ± 5.5	95.1 ± 3.1	90.6 ± 6.3	94.2 ± 5.9	3.78	4.58	3.59	4.83	3.69	5.28	1.06	1.04	1.06	0.973	1.07	1.01	105 ± 3.7	105 ± 7.9	97.6 ± 5.4	100 ± 4					25.2	20.4
Oc1cccc(-c2nc(N3CCOCC3)c3oc4ncccc4c3n2)c1	22.3	19.6	20.9	58.4 ± 1.5	56.8 ± 2.5	55.17 ± 0.53	58.8 ± 2.2	60.1 ± 3.8	58.6 ± 2.4	9.68	11.3	11.4	11.6	10	11.3	0.904	0.875	0.774	0.734	0.738	0.682										
C[C@@H]1CC[C@@]2(OC1)O[C@H]1[C@@H](O)[C@H]3[C@@H]4CC[C@H]5C[C@@H](O[C@@H]6O[C@H](CO)[C@H](O[C@@H]7O[C@H](CO)[C@@H](O)[C@H](O[C@@H]8OC[C@@H](O)[C@H](O)[C@H]8O)[C@H]7O[C@@H]7O[C@H](CO)[C@H](O)[C@H](O[C@@H]8O[C@H](CO)[C@@H](O)[C@H](O)[C@H]8O)[C@H]7O)[C@H](O)[C@H]6O)[C@H](O)C[C@]5(C)[C@H]4CC[C@]3(C)[C@H]1[C@@H]2C	13.7	20.4	11.7	64.5 ± 5.7	36.8 ± 12	8.23 ± 3.5	76.2 ± 7.3	45.1 ± 18	21 ± 4.2	7.99	7.32	7.71	8.51	13.6	28.6	0.85	0.742	0.753	0.19	0.117	0.0498										
COc1ccc(C[C@H](N)C(=O)N[C@H]2[C@@H](O)[C@H](n3cnc4c(N(C)C)ncnc43)O[C@@H]2CO)cc1	3.09	1.12		10.2 ± 1.6	2.46 ± 0.44	1.28 ± 0.26	12.5 ± 1.3	4.88 ± 0.7	4.55 ± 0.68	13.8	17.7	20.2	25.3	32.9	33.9	1.04	0.891	0.637	0.283	0.157	0.0622										
COC(=O)c1ccc([C@H]2c3[nH]c4ccccc4c3C[C@H](C(=O)OC)N2C(=O)CCl)cc1	3.83	3.98	1.09	69.6 ± 4.1	49.1 ± 4.9	6.2 ± 1.6	93.1 ± 5.2	75.3 ± 6.4	10.7 ± 1.2	10.3	10.7	11.1	10.8	10	17.9	0.876	0.867	0.818	0.68	0.524	0.186										
